Counter-ions that a name gives are not always drawn.
Assays:
[1] = tested on: MTT (mouse pheochromocytoma); assay: IC50 of cell viability (ATP content); AC50 where efficacy is positive; conditions: (24 or 48 h)
[2] = tested on: MTT (mouse pheochromocytoma); assay: efficacy (maximal response) relative to doxorubicin = -100% and DMSO = 0%; higher = less inhibition of viability; conditions: (24 or 48 h)

Compound	IC50 of cell viability [1] [µM]	efficacy [2] [%]
C[n+]1cc2c3c(ccc2c2ccc4cc5c(cc4c21)OCO5)OCO3 [Sanguinarine]	8.41	-87.7
CCCCCCNC(=O)N1\C=C(F)/C(=O)NC1=O [CARMOFUR]	1.88	-56.9
COC(=O)C[C@](O)(CCCC(C)(C)O)C(=O)O[C@H]\1[C@H]2C3=CC4=C(OCO4)C=C3CCN5CCC[C@]25\C=C1OC [Homoharringtonine]	0.237	-73.7
Cl.Nc1c2ccccc2nc2ccccc12.O [9-Aminoacridine HCl H2O]	21.1	-110
OC[C@H]1O[C@@H](n2cnc3c(S)ncnc32)[C@H](O)[C@@H]1O [Thionosine]	18.8	-85.4
CC(C)(Cc1c[nH]c2ccccc12)NCC(O)COc1ccccc1C#N (stereo not given) [BUCINDOLOLUM]	11.9	-41.7
Cc1c(C(=O)O)c(O)cc2c1C(=O)c1c(O)c([C@H]3O[C@H](CO)[C@@H](O)[C@H](O)[C@H]3O)c(O)c(O)c1C2=O [COCHINEAL]	16.8	-45.4
C[S+](CC[C@H](N)C(=O)O)C[C@H]1O[C@@H](n2cnc3c(N)ncnc32)[C@H](O)[C@@H]1O (stereo not given in full) [ADEMETIONINE]	21.1	-49.1
Cc1cc(-c2ccc(/N=N/c3c(S(=O)(=O)[O-])cc4cc(S(=O)(=O)[O-])cc(N)c4c3O)c(C)c2)ccc1/N=N/c1c(S(=O)(=O)[O-])cc2cc(S(=O)(=O)[O-])cc(N)c2c1O [TRYPAN BLUE]	2.37	-37.4
Cc1cc(O)c2ccccc2c1O [Menadiol]	26.6	-94.6
O=Cc1ccccc1C=O [PHTHARAL]	13.3	-54.4
OCCN1CCN(CC/C=C2/c3ccccc3Sc3ccc(C(F)(F)F)cc32)CC1 [cis-(Z)-FLUPENTHIXOL]	23.7	-85.6
CO[C@@]12[C@H](COC(N)=O)C\3=C(/N1C[C@H]4N[C@@H]24)C(=O)\C(=C(N)/C3=O)C [MITOMYCIN C]	1.5	-34.6
CCCCc1ccc2[nH]c(NC(=O)OC)nc2c1 [Parbendazole]	0.453	-45.1
Cc1cc(/C=C\c2ccc3cc(N(C)C)ccc3[n+]2C)c(C)n1-c1ccccc1.Cc1cc(/C=C\c2ccc3cc(N(C)C)ccc3[n+]2C)c(C)n1-c1ccccc1.O=C([O-])c1cc2ccccc2c(Cc2c(O)c(C(=O)[O-])cc3ccccc23)c1O [Pyrvinium pamoate]	0.64	-33.3
N#Cc1nn(-c2c(Cl)cc(C(F)(F)F)cc2Cl)c(N)c1[S+]([O-])C(F)(F)F (stereo not given) [FIPRONIL]	23.7	-88.6
COc1cc(/C=C/C(=O)CC(=O)/C=C/c2ccc(O)c(OC)c2)ccc1O [Curcumin]	16.8	-79.7
CCC(C(=O)C(C)C(O)C(C)CCc1ccc(C)c(O)c1C(=O)[O-])C1OC(CC)(C2CC[C@@](O)(CC)C(C)O2)CC1C.[Na+] (stereo not given in full) [LASALOCID SODIUM]	4.22	-40.1
O=C(Nc1ccc([N+](=O)[O-])cc1)Nc1ccc([N+](=O)[O-])cc1 [Nicarbazin]	10.6	-44.1
[Hg+2] [Mercuric chloride]	2.37	-90.3
CCCCCCCCCCCCCC[n+]1ccc(C)cc1 [MYRISTYL-GAMMA-PICOLINIUM CHLORIDE]	0.531	-39.7
CCCCCCCCCCCC[N+](C)(C)CCOc1ccccc1 [Domiphen bromide]	15	-99.3
CCCCCCCC[N+](C)(C)CCCCCCCC [Dioctyldimethylammonium chloride]	0.531	-48.6
CC[n+]1c(-c2ccccc2)c2cc(N)ccc2c2ccc(N)cc21.[Br-] [HOMIDIUM BROMIDE]	11.9	-34.1
Nc1ncn(C2C[C@H](O)[C@@H](CO)O2)c(=O)n1 (stereo not given in full)	0.0668	-51.6
CCCCCCCCCCCCCCCC[N+](C)(C)CC [Mecetronium ethylsulfate]	11.9	-78.5
COC(=O)Nc1nc2cc(Sc3ccccc3)ccc2[nH]1 [Fenbendazole]	1.01	-61.4
C\N=C1/C=C\C(\C=C1)=C(/C2=CC=C(C=C2)N(C)C)C3=CC=C(C=C3)N(C)C [METHYL VIOLET]	7.5	-70.3

Compound	IC50 of cell viability [1] [µM]	efficacy [2] [%]
Cc1nc2ccccc2n1Cc1ccc(Cl)cc1 [Chlormidazole]	13.3	-59
CC(C)OC(=O)Nc1ccc2[nH]c(-c3cscn3)nc2c1 [CAMBENDAZOLE]	8.41	-45.2
Cc1cc(O)c2c3c4c(cc(O)c13)C(C)(C)C(=O)c1c(O)cc(O)c(c1-4)C2=O [HELIOMYCINUM]	3.35	-46.4
Cl.CC(C)(C)[C@]1(O)CC[N@@]2C[C@H]3C4=C(CCC5=CC=CC(=C35)[C@@H]2C1)C=CC=C4 [(?)-Butaclamol hydrochloride]	21.1	-70.8
CN/C(=N/C#N)NCCSCc1nc[nH]c1C [CIMETIDINE]	13.3	-40.4
CC(C)COC(=O)OCN1C(=O)CN(CCN2CC(=O)N(COC(=O)OCC(C)C)C(=O)C2)CC1=O [Sobuzoxane]	0.841	-56.1
CC(=O)[C@]1(O)Cc2c(O)c3c(c(O)c2[C@@H](O[C@H]2C[C@H](N)[C@H](O)[C@H](C)O2)C1)C(=O)c1c(O)cccc1C3=O [CARUBICINUM]	2.99	-59.2
CCCSc1ccc2[nH]c(NC(=O)OC)nc2c1 [Albendazole]	0.718	-57.9
COc1ccc(CCN2CCC(Nc3nc4ccccc4n3Cc3ccc(F)cc3)CC2)cc1 [ASTEMIZOLE]	16.8	-74.8
C[C@]12O[C@H](C[C@]1(O)CO)n1c3ccccc3c3c4c(c5c6ccccc6n2c5c31)CNC4=O [LESTAURTINIB]	2.66	-83.2
C[n+]1c2cc(N)ccc2cc2ccc(N)cc21.[Cl-] [ACRIFLAVINIUM HYDROCHLORIDE]	10.6	-50.3
CN(C)C1=CC=C(C=C1)C(C2=CC=CC=C2)=C/3\C=C/C(/C=C3)=[N+](C)C [Malachite Green Oxalate]	8.41	-61.3
CCC(C(=O)O)C1OC(C(C)C(O)C(C)C(=O)C(CC)C2OC3(C=CC(O)C4(CCC(C)(C5CCC(O)(CC)C(C)O5)O4)O3)C(C)CC2C)C(C)CC1C (stereo not given) [NARASIN]	1.68	-46.7
O=C(CCCCCCC(=O)Nc1ccccc1)NO [SUBEROYLANILIDE HYDROXAMIC ACID]	2.37	-58.6
CCCCCCCCCCCCCCCC[N+](C)(C)Cc1ccccc1.O.[Cl-] [CETALKONIUM CHLORIDE]	15	-56.9
CCCOc1ccc2nc(NC(=O)OC)sc2c1 [Tioxidazole]	11.9	-55.6
CCCCC(=O)OCC(=O)[C@]1(O)Cc2c(O)c3c(c(O)c2[C@H](OC2CC(NC(=O)C(F)(F)F)C(O)C(C)O2)C1)C(=O)c1c(OC)cccc1C3=O (stereo not given in full) [Valrubicin]	16.8	-78
O=C(Nc1cccc(C(F)(F)F)c1)c1cc(Br)cc(Br)c1O [FLUOROSALAN]	2.66	-35.6
O=C(Nc1ccc([N+](=O)[O-])cc1Cl)c1cc(Cl)ccc1O [Niclosamide]	0.473	-41.1
O=C(Nc1ccc(Br)cc1)c1cc(Br)c(Br)s1 [Tibrofan]	26.6	-64.5
CC(=O)C1(O)Cc2c(O)c3c(c(O)c2C(OC2CC(N)C(O)C(C)O2)C1)C(=O)c1c(O)cccc1C3=O (stereo not given) [Carminomycin]	2.66	-48.5
COC(=O)[C@H]1[C@H]2C[C@@H]3c4[nH]c5ccccc5c4CCN3C[C@H]2C[C@@H](OC(=O)c2cc(OC)c(OC)c(OC)c2)[C@@H]1OC [DESERPIDINE]	13.3	-92.6
NNCCc1ccccc1 [Phenelzine sulfate]	5.08	-52.6
CC(=O)[O][Hg][c]1ccccc1 [PHENYLMERCURIC ACETATE]	2.37	-93.4
O=S(=O)([O-])c1ccc2c(/N=N/c3ccc(S(=O)(=O)[O-])c4ccccc34)c(O)c(S(=O)(=O)[O-])cc2c1 [FD & C Red Dye No. 2]	16.8	-95.8
Cc1cc(N)c2ccccc2[n+]1CCCCCCCCCC[n+]1c(C)cc(N)c2ccccc21 [Dequalinium dichloride]	11.4	-81.5
CCCCCCCC[N+](C)(C)CCCCCCCC [Dioctyl Dimethyl Ammonium Chloride]	0.119	-39.1

Reference: the supplement of paper PMC3974653
